According to patent publication US7351861B2 (priority 2002, dated 2008):
Read-outs that look alike come from different tables or passages of the source.

What was measured:
Type in all cases: cell-based, Yersinia pseudotuberculosis
[1] = system: luciferase light signal from pIB29EL (yopE-luxAB); assay: microbe, parasite or virus in culture; conditions: for IC50: read-out: IC50 (concentration resulting in 50% reduction of luciferase light emission)
[2] = system: luciferase light signal from pIB102AL (luxAB downstream of the promoter for YerA)
[3] = system: reporter gene signal from pIB102FL (lcrF-luxAB)
[4] = system: reporter gene signal from pIB102FΔhlhL (lcrFΔhlh-luxAB)
[5] = system: Yop secretion from the wild-type strain pIB102EL; conditions: for Inhibition of Yop secretion into the surrounding medium (in words): supernatant after 3 h at 37° C., Western analysis
[6] = system: luciferase light signal from pIB102EL (yopE-luxAB, wild-type); assay: microbe, parasite or virus in culture; conditions: for inhibition at 5 µM / inhibition at 10 µM / inhibition at 20 µM / inhibition at 50 µM / inhibition at 100 µM: Yersinia pseudotuberculosis, read-out: Inhibition (%) of the luciferase light signal; for Inhibition (%) of the luciferase light signal: strain pIB102EL, Table 2C
[7] = 10 μM, strain pIB29EL, Table 2C
[8] = 20 μM, strain pIB29EL, Table 2C
[9] = 50 μM, strain pIB29EL, Table 2C
[10] = 100 μM, strain pIB29EL, Table 2C

Question: How did the “Inhibition (%) of the luciferase light signal” value (“Inhibition (%)” for short) ([1]; 10 μM, pIB29EL, Table 2A) turn out when `O=C(N/N=C/c1cc(Br)cc(Br)c1O)c1ccc([N+](=O)[O-])cc1` [Compound 3] was run?
Answer: 12%

Question: And the “Inhibition (%)” value ([1]; 20 μM, pIB29EL, Table 2A)?
Answer: 48%

Question: What about the “Inhibition (%)” value ([1]; 50 μM, pIB29EL, Table 2A) of the same compound?
Answer: 85%

Question: What about the “Inhibition (%)” value ([1]; 100 μM, pIB29EL, Table 2A) of the same compound?
Answer: 86%

Question: What about the “Potency within the class of acylated hydrazones of salicylic aldehydes from primary screening (in words)” value ([1]; pIB29EL) of the same compound?
Answer: most potent

Question: And the “Selectivity between pIB102EL (YopE promoter) and control strain pIB102AL (in words)” value [2]?
Answer: stronger inhibitory effect on the wild-type strain pIB102EL

Question: What about the “Effect on reporter gene signal (in words)” value [3] of the same compound?
Answer: enhance the reporter gene signal

Question: And the “Effect on reporter gene signal (in words)” value [4]?
Answer: more than doubled

Question: And the “Inhibition of Yop secretion into the surrounding medium (in words)” value [5]?
Answer: efficiently inhibits Yop secretion in a dose dependent manner

Question: And the “Total Yop content, bacteria and surrounding media (in words)” value ([5]; various concentrations incl. 50 and 100 μM lanes, FIG. 6B)?
Answer: Yops can be observed at concentrations that completely inhibit secretion

Question: Which results are given for `CC(=O)Oc1c(I)cc(I)cc1C(=O)Nc1ccc(Cl)cc1` [Compound 4, 2-acetoxy-4′-chloro-3,5-diiodobenzanilide]?
Answer: inhibition at 5 µM ([1]; Yersinia pseudotuberculosis, read-out: Inhibition (%) of the luciferase light signal, 5 μM (first of two columns headed 5), pIB29EL, Table 2B): 15%; inhibition at 5 µM ([1]; Yersinia pseudotuberculosis, read-out: Inhibition (%) of the luciferase light signal, 5 μM (second of two columns headed 5), pIB29EL, Table 2B): 45%; inhibition at 10 µM ([1]; Yersinia pseudotuberculosis, read-out: Inhibition (%) of the luciferase light signal, 10 μM, pIB29EL, Table 2B): 81%; inhibition at 20 µM ([1]; Yersinia pseudotuberculosis, read-out: Inhibition (%) of the luciferase light signal, 20 μM, pIB29EL, Table 2B): 96%; Effect on reporter gene signal (in words) ([6]; pIB102EL, FIG. 5C): inhibits the reporter gene signal; Effect on reporter gene signal (in words) [2]: inhibits the reporter gene signal; Selectivity between pIB102EL (YopE promoter) and control strain pIB102AL (in words) [2]: no selectivity; Effect on reporter gene signal (in words) [3]: inhibits the reporter gene signal; Effect on reporter gene signal (in words) [4]: inhibits the reporter gene signal; Inhibition of Yop secretion into the surrounding medium (in words) [5]: dose dependent inhibition of secretion

Question: Which results are given for `O=C(Nc1ccc(Cl)c(Cl)c1)c1cc(Cl)ccc1NS(=O)(=O)c1cccc2nsnc12` [Compound 5]?
Answer: Inhibition (%) of the luciferase light signal ([1]; 10 μM, pIB29EL, Table 2A): 35%; Inhibition (%) of the luciferase light signal ([1]; 20 μM, pIB29EL, Table 2A): 60%; Inhibition (%) of the luciferase light signal ([1]; 50 μM, pIB29EL, Table 2A): 69%; Inhibition (%) of the luciferase light signal ([1]; 100 μM, pIB29EL, Table 2A): 66%; Selectivity between pIB102EL (YopE promoter) and control strain pIB102AL (in words) [2]: stronger inhibitory effect on the wild-type strain pIB102EL; Effect on reporter gene signal (in words) [3]: minor inhibition; Effect on reporter gene signal (in words) [4]: modest enhancement; Inhibition of Yop secretion into the surrounding medium (in words) [5]: dose dependent inhibition of secretion

Question: Which inhibition at 5 µM [6] does the source give for `NC(=O)C(=O)N/N=C/c1cc(Br)ccc1O` [Compound 22] here?
Answer: 0%

Question: What about the inhibition at 10 µM [6] of the same compound?
Answer: 4%

Question: And the inhibition at 20 µM [6]?
Answer: 24%

Question: And the inhibition at 50 µM [6]?
Answer: 66%

Question: And the inhibition at 100 µM [6]?
Answer: 82%

Question: What does the source list for `O=C(N/N=C/c1ccc(O)c(O)c1O)c1ccco1` [Compound 34]?
Answer: inhibition at 5 µM [6]: 1%; inhibition at 10 µM [6]: 5%; inhibition at 20 µM [6]: 10%; inhibition at 50 µM [6]: 26%; inhibition at 100 µM [6]: 56%

Question: `O=C(N/N=C/c1cc(Cl)cc(Cl)c1O)c1ccccc1` [Compound 35] was tested. Which “Inhibition (%)” value ([6]; 5 μM) did it give?
Answer: 0%

Question: What about the “Inhibition (%)” value ([6]; 10 μM) of the same compound?
Answer: 0%

Question: What about the “Inhibition (%)” value ([6]; 20 μM) of the same compound?
Answer: 5%

Question: What about the “Inhibition (%)” value ([6]; 50 μM) of the same compound?
Answer: 21%

Question: And the “Inhibition (%)” value ([6]; 100 μM)?
Answer: 43%

Question: Which results are given for `O=C(N/N=C/c1ccc(O)c(O)c1O)c1ccccc1` [Compound 36]?
Answer: Inhibition (%) of the luciferase light signal ([6]; 5 μM): 5%; Inhibition (%) of the luciferase light signal ([6]; 10 μM): 10%; Inhibition (%) of the luciferase light signal ([6]; 20 μM): 15%; Inhibition (%) of the luciferase light signal ([6]; 50 μM): 24%; Inhibition (%) of the luciferase light signal ([6]; 100 μM): 54%

Question: For `CCN(CC)c1ccc(/C=N/NC(=O)c2cccnc2)c(O)c1` [Compound 37], which inhibition at 5 µM [6] is on record?
Answer: 5%

Question: And the inhibition at 10 µM [6]?
Answer: 8%

Question: What about the inhibition at 20 µM [6] of the same compound?
Answer: 21%

Question: What about the inhibition at 50 µM [6] of the same compound?
Answer: 30%

Question: And the inhibition at 100 µM [6]?
Answer: 32%

Question: For `O=C(N/N=C/c1ccc(O)cc1O)c1ccc([N+](=O)[O-])cc1` [Compound 38], which “Inhibition (%)” value ([6]; 5 μM) is on record?
Answer: 4%

Question: And the “Inhibition (%)” value ([6]; 10 μM)?
Answer: 10%

Question: What about the “Inhibition (%)” value ([6]; 20 μM) of the same compound?
Answer: 13%

Question: And the “Inhibition (%)” value ([6]; 50 μM)?
Answer: 23%

Question: What about the “Inhibition (%)” value ([6]; 100 μM) of the same compound?
Answer: 36%

Question: What does the source list for `CC(=NNC(=O)c1cccnc1)c1cc(Br)cc(Br)c1O` [Compound 39]?
Answer: Inhibition (%) of the luciferase light signal ([6]; 5 μM): 0%; Inhibition (%) of the luciferase light signal ([6]; 10 μM): 3%; Inhibition (%) of the luciferase light signal ([6]; 20 μM): 4%; Inhibition (%) of the luciferase light signal ([6]; 50 μM): 13%; Inhibition (%) of the luciferase light signal ([6]; 100 μM): 24%

Question: For `Nc1ccc(C(=O)N/N=C/c2cc(I)cc(I)c2O)cc1` [Compound 40], which “Inhibition (%)” value ([6]; 5 μM) is on record?
Answer: 3%

Question: And the “Inhibition (%)” value ([6]; 10 μM)?
Answer: 11%

Question: And the “Inhibition (%)” value ([6]; 20 μM)?
Answer: 18%

Question: What about the “Inhibition (%)” value ([6]; 50 μM) of the same compound?
Answer: 41%

Question: And the “Inhibition (%)” value ([6]; 100 μM)?
Answer: 50%

Question: With `O=C(N/N=C/c1cc(I)cc(I)c1O)c1ccc([N+](=O)[O-])cc1` [Compound 41] as the compound, how does the “Inhibition (%)” value ([6]; 5 μM) read?
Answer: 3%

Question: And the “Inhibition (%)” value ([6]; 10 μM)?
Answer: 13%

Question: What about the “Inhibition (%)” value ([6]; 20 μM) of the same compound?
Answer: 33%

Question: And the “Inhibition (%)” value ([6]; 50 μM)?
Answer: 48%

Question: What about the “Inhibition (%)” value ([6]; 100 μM) of the same compound?
Answer: 44%

Question: For `O=C(N/N=C/c1cc(Br)ccc1O)c1cccnc1` [Compound 42], which “Inhibition (%)” value ([6]; 5 μM) is on record?
Answer: 0%

Question: What about the “Inhibition (%)” value ([6]; 10 μM) of the same compound?
Answer: 9%

Question: What about the “Inhibition (%)” value ([6]; 20 μM) of the same compound?
Answer: 16%

Question: And the “Inhibition (%)” value ([6]; 50 μM)?
Answer: 49%

Question: And the “Inhibition (%)” value ([6]; 100 μM)?
Answer: 59%

Question: `CCOc1cccc(/C=N/NC(=O)c2ccc(Cl)cc2)c1O` [Compound 43] was tested. Which “Inhibition (%)” value ([6]; 5 μM) did it give?
Answer: 0%

Question: And the “Inhibition (%)” value ([6]; 10 μM)?
Answer: 6%

Question: What about the “Inhibition (%)” value ([6]; 20 μM) of the same compound?
Answer: 12%

Question: What about the “Inhibition (%)” value ([6]; 50 μM) of the same compound?
Answer: 22%

Question: What about the “Inhibition (%)” value ([6]; 100 μM) of the same compound?
Answer: 34%

Question: For `Nc1ccc(C(=O)N/N=C/c2c(O)ccc3ccccc23)cc1` [Compound 44], which “Inhibition (%)” value ([6]; 5 μM) is on record?
Answer: 3%

Question: And the “Inhibition (%)” value ([6]; 10 μM)?
Answer: 10%

Question: And the “Inhibition (%)” value ([6]; 20 μM)?
Answer: 15%

Question: And the “Inhibition (%)” value ([6]; 50 μM)?
Answer: 23%

Question: What about the “Inhibition (%)” value ([6]; 100 μM) of the same compound?
Answer: 30%

Question: `O=C(Nc1ccc(Cl)c(Cl)c1)c1ccccc1NS(=O)(=O)c1cccc2nsnc12` [Compound 59] was tested. Which “Inhibition (%)” value ([1]; 5 μM, strain pIB29EL, Table 2C) did it give?
Answer: 0%

Question: What about the “Inhibition (%)” value [1, 7] of the same compound?
Answer: 0%

Question: What about the “Inhibition (%)” value [1, 8] of the same compound?
Answer: 0%

Question: What about the “Inhibition (%)” value [1, 9] of the same compound?
Answer: 7%

Question: What about the “Inhibition (%)” value [1, 10] of the same compound?
Answer: 10%

Question: What does the source list for `CC(=O)Oc1ccccc1C(=O)Nc1ccc(Cl)cc1` [Compound 60]?
Answer: Inhibition (%) of the luciferase light signal ([1]; 5 μM, strain pIB29EL, Table 2C): 0%; Inhibition (%) of the luciferase light signal [1, 7]: 21%; Inhibition (%) of the luciferase light signal [1, 8]: 65%; Inhibition (%) of the luciferase light signal [1, 9]: 89%; Inhibition (%) of the luciferase light signal [1, 10]: 89%

Question: What does the source list for `NC(=O)C(=O)N/N=C/c1cc(Br)cc(Br)c1O` [Compound 61]?
Answer: Inhibition (%) of the luciferase light signal ([1]; 5 μM, strain pIB29EL, Table 2C): 7%; Inhibition (%) of the luciferase light signal [1, 7]: 9%; Inhibition (%) of the luciferase light signal [1, 8]: 19%; Inhibition (%) of the luciferase light signal [1, 9]: 32%; Inhibition (%) of the luciferase light signal [1, 10]: 55%

Question: What does the source list for `CC(=O)Oc1ccc(I)cc1C(=O)Nc1ccc(Cl)cc1` [Compound 62]?
Answer: Inhibition (%) of the luciferase light signal ([1]; 5 μM, strain pIB29EL, Table 2C): 95%; Inhibition (%) of the luciferase light signal [1, 7]: 92%; Inhibition (%) of the luciferase light signal [1, 8]: 91%; Inhibition (%) of the luciferase light signal [1, 9]: 91%; Inhibition (%) of the luciferase light signal [1, 10]: 90%

Question: How did the IC50 ([1]; Yersinia pseudotuberculosis) turn out when `CCn1cc(C(=O)O)c(=O)c2ccc(C)nc21` [Nalidixic acid, reference compound] was run?
Answer: 15 µM

Question: What about the “Inhibition of light-emission (in words)” value ([1]; known antibiotics, pIB29EL) of the same compound?
Answer: dose-dependent inhibition of light-emission

Question: Which IC50 ([1]; Yersinia pseudotuberculosis) does the source give for `[H]/N=C(/N)N[C@H]1[C@H](O)[C@@H](O)[C@H](O[C@@H]2O[C@@H](C)[C@](O)(C=O)[C@H]2O[C@@H]2O[C@@H](CO)[C@H](O)[C@@H](O)[C@@H]2NC)[C@@H](N/C(N)=N\[H])[C@@H]1O` [Streptomycin, reference compound] here?
Answer: 4 µM

Question: What about the “Inhibition of light-emission (in words)” value ([1]; known antibiotics, pIB29EL) of the same compound?
Answer: dose-dependent inhibition of light-emission

Question: Polymixin B [reference compound] was tested. Which “Inhibition of light-emission (in words)” value [1] did it give?
Answer: dose-dependent inhibition of light-emission

Question: And the IC50 [1]?
Answer: 0.15 µM
